Data published in publication PMC8778818, “Synthesis, Structural Characterization and Anticancer Activity of New 5-Trifluoromethyl-2-thioxo-thiazolo[4,5-d]pyrimidine Derivatives” (Pharmaceuticals, 2022).

Tests used:
Format in all cases: cell-based, human
MDA-MB-435 = experiment: NCI-60 screen, Melanoma MDA-MB-435; settings: for Growth of Cells (%): MDA-MB-435, 10^−5 M one dose
Description: The search for the cytotoxic activity of new derivatives usually starts with in vitro cell-based screening. Four compounds 2b (NSC D-745983/1), 3b (NSC D-766111/1), 4b (NSC D-785591/1) and 4c (NSC D-771706/1), selected by the National Cancer Institute were tested in the anticancer screen for a panel of approximately 60 human disease-oriented tumor cell lines, organized into subpanels derived from nine human cancer types—leukemia, melanoma, and cancers of the lung, colon, brain, breast, ovary, prostate, and kidney. They were initially tested at only one concentration of 10 µM (10^−5 M) for each cell line, which were inoculated and preincubated on a microtiter plate for […]. The results of the one-dose anticancer assay for the tested new compounds are reported as the percentage of the treated cell growth in comparison with untreated no-drug control. This allows for detection of the growth inhibition—values 0–100 and cytotoxicity; negative numbers mean cell death.
Antitumor activity in five dose testing (10^−4−10^−8 M) is expressed by three different dose–response parameters for each of the 60 human tumor cell lines. The GI50 value (molar concentration causing a half-growth inhibition), TGI (molar concentration required for total growth inhibition), which signifies the cytostatic effect, and LC50 (molar concentration of the compound required for 50% cell death). LC50 signifies the cytotoxic effect. […] Nevertheless, the selectivity for GI50 can be seen for several cell lines within subpanel leukemia (SR, log GI50 −6.36) and non-small cell lung cancer (NCI-H522, log GI50 −6.69).
The antitumor screening (NCI-60) was performed at the National Cancer Institute, Bethesda, USA. A total panel of approximately 60 human tumor cell lines derived from nine different cancer types (leukemia, non-small cell lung, colon, brain, melanoma, ovarian, renal, prostate and breast) formed the basis of this in vitro test. The origins and processing of the cell lines used in the study were described previously. First, the compounds were evaluated in a primary anticancer assay at 10^−5 M. Results for each tested compound are reported as the percent of growth of the treated cells. […] The human tumor cell lines of the cancer screening panel were grown in an RMPI 1640 medium containing 5% fetal bovine serum and 2 mM of L-glutamine. Each cell line was inoculated and preincubated at 37 °C, 5% CO2, 95% air and 100% relative humidity for 24 h, before the addition of the test compound into 96-well microtiter plates in 100 µL at plating densities ranging from 5000 to 40,000 cells/well. The density of inoculum depends on the type of tumor cell and its growth characteristics. The screened compounds were solubilized in dimethyl sulfoxide at 400-fold the desired final concentration and stored frozen. At the time of the test agents’ addition, an aliquot of frozen concentrate was thawed and diluted to twice the desired final concentration with complete medium containing 50 µg/mL gentamicin. Next, the test compounds were evaluated at the four additional 10-fold dilutions to reach the final concentrations plus control. Aliquots of 100 µL of the different dilutions (100, 10, 1, […] µM/mL) of the tested compounds were added to microtiter wells, and the culture was incubated for 48 h under the same conditions. Cell were fixed in situ by the addition of 50 µL of cold 50% trichloroacetic acid and incubated for 60 min at 4 °C. The supernatant was discarded; plates were washed five times with water and air-dried. Sulforhodamine B at 0.4% in 1% acetic acid, 100 µL, was added to each well, then plates were incubated for 10 min at room temperature. Unbound dye was removed by washing five times with 1% acetic acid and air dried. The protein-bound stain was solubilized with a […] trizma base and the absorbance was read on an automated plate reader. A wavelength of 515 nm was used to read optical densities. […]

C32 = experiment: MTT cell viability assay, C32; settings: Homo sapiens, 72 h; for IC50: C32, MTT, mean ± SD
Description: (§1) Twelve compounds (2a-e, 3a-d and 4a-c) at a concentration range of 50–5000 μM were tested for their antiproliferative potential against four human cancer cell lines (A375—melanotic melanoma, C32—amelanotic melanoma, DU145—prostate cancer androgen-independent, MCF-7/WT—breast adenocarcinoma) and two normal cell lines: Chinese Hamster Ovary (CHO-K1) and immortalized human keratinocytes from histologically normal skin (HaCaT).
(§2) To determine the antiproliferative activity of newly synthesized compounds, the following cell lines were used: human melanotic melanoma cell line (A375), human amelanotic melanoma cell line (C32), human breast adenocarcinoma cell line (MCF-7/WT), human prostate cancer androgen-independent (DU145) and two normal cell lines: hamster ovarian (CHO-K1) and immortalized human keratinocytes from histologically normal skin (HaCaT). The cells were obtained from the cell line bank of the Department of Molecular and Cellular Biology, Wroclaw Medical University. A375, C32, MCF-7/WT, DU145 and HaCaT cells were grown in a monolayer cultured in Dulbecco’s Modified Eagle’s Medium (DMEM, Sigma-Aldrich, Poznań, Poland), supplemented with 10% of fetal bovine serum (FBS, Gibco, Paisley, UK) and 1% of antibiotics (penicillin/streptomycin, Sigma-Aldrich) and CHO-K1 were grown in HAM’s F-12 medium (Sigma-Aldrich), supplemented with 10% fetal bovine serum (FBS, Gibco) and 1% of antibiotics (penicillin/streptomycin, Sigma-Aldrich). Cell lines were cultured in the polystyrene flasks 25 or 75 cm^2 (Thermo Fisher Scientific, Waltham, MA, USA), which were stored in 37 °C and 5% CO2 in a humidified 95% atmosphere (SteriCult, Thermo Scientific, Alab). The cell medium was exchanged twice a week. The exponentially growing cells were used throughout the experiments. The cells were rinsed with phosphate-buffered saline (PBS, Sigma-Aldrich) and trypsinized by Trypsin-EDTA 0.25% solution (Sigma-Aldrich).
(§3) The influence of the compounds was performed in a monolayer culture on cancer and normal cells. Compounds were initially dissolved in DMSO; further dilutions of the compound were performed in Dulbecco’s Modified Eagle’s Medium supplemented with 10% FBS. Compounds were tested in a 50–5000 µM concentration range. In the in vitro experiments, the concentrations of DMSO in the final solution of the compounds were used 0.05%; 0.1%; 0.5%; 1%, respectively.
(§4) Cell viability was determined using the MTT colorimetric assay. All cell lines were seeded into 96-well plates to a density of 3 × 10^4 cells/well. After 24 h, the culture supernatants were removed and appropriate dilutions of compounds in the culture medium (200 µL/well) were added to the cells’ monolayer cultures and incubated for an additional 72 h. After 72 h of exposition to the compounds and the removal of the culture medium, cell viability was determined by reducing the yellow dye 3-(4,5-dimethyl-2-thiazol)-2,5-diphenyl-2H-tetrazolium bromide (MTT assay, Sigma Saint Louis, MO, USA; In Vitro Toxicology Assay) to a blue formazan product. The absorbance of the resulting solutions in three duplicate experiments was measured at the wavelength of 560 nm in a microplate reader (EnSpire, Perkin Elmer, Kraków, Poland). MTT assay is a colorimetric method that estimates the rate of metabolism in viable cells. Absorbance is directly proportional to the number of viable cells. All the experiments were performed three times and the mean absorbance values were calculated. The methodology for the evaluation of the growth of human cancer and normal cells was described previously. The cell viability in each group was expressed as a percentage of control (untreated) cells.

DU145 = experiment: MTT cell viability assay, DU145; settings: Homo sapiens, DU-145; DU145, MTT, 72 h, mean ± SD
Description: as §1, §2, §3, §4

Compound	Growth of Cells (%) (MDA-MB-435)	IC50 (C32) [µM]	IC50 (DU145) [µM]	GI50 (MDA-MB-435; Homo sapiens, MDA-MB-435, five doses 10^−4–10^−8 M) [µM]	CC50 (MDA-MB-435; Homo sapiens, MDA-MB-435, five doses 10^−4–10^−8 M, read-out: log LC50 (the source's name) (converted)) [µM]	log TGI (MDA-MB-435; MDA-MB-435, five doses 10^−4–10^−8 M) [log M]	viability at 50 µM (C32; C32 amelanotic melanoma, 50 µM) [%]
CCNc1nc(C(F)(F)F)nc2c1sc(=S)n2-c1ccccc1 [Compound 4b, 7-(ethylamino)-3-phenyl-5-(trifluoromethyl)[1, 3]thiazolo[4,5-d]pyrimidine-2(3H)-thione]	112.84	356 ± 15.2	323 ± 13.8				
O=c1[nH]c(C(F)(F)F)nc2c1sc(=S)n2-c1ccccc1 [Compound 2b, 3-phenyl-2-thioxo-5-(trifluoromethyl)-2,3-dihydro[1, 3]thiazolo[4,5-d]pyrimidin-7(6H)-one]	114.64	496 ± 20.4	356 ± 14.7				
FC(F)(F)c1nc(Cl)c2sc(=S)n(-c3ccccc3)c2n1 [Compound 3b, 7-chloro-3-phenyl-5-(trifluoromethyl)[1, 3]thiazolo[4,5-d]pyrimidine-2(3H)-thione]	6.26	24.4 ± 0.5	55.1 ± 1.1	1.86	7.41	−5.43	20
Fc1ccc(CNc2nc(C(F)(F)F)nc3c2sc(=S)n3-c2ccccc2)cc1 [Compound 4c]	102.86	485 ± 21.2	237 ± 10.3				
